Values joined by “and” are separate entries in the source; they are usually repeats but may differ in a detail not shown here. Equal entries are not always repeated. Where two headings read alike, the source gives them in different places.
Key:
[1] = tested on: PR-2, i.e., β-1,3-glucanase; assay: Induction of PR-2 mRNA (northern blot) in DMO soybean after spraying; format: in vivo; conditions: for induction of PR2 at various rates: 0.25, 0.5 and 1 lb/acre, 24 hrs after treatment, two independent transgenic soybean lines, FIG. 2
Description: (§1) Transgenic and control soybean seeds (cultivars Thorne, NE3001, A3525) were planted into 3.5-inch square plastic pots containing Redi-Earth™ (Scotts-Sierra Horticultural Products Co., Marysville, Ohio). The pots were placed on capillary matting in 35 inch×60 inch fiberglass watering trays for overhead and/or sub-irrigation for the duration of the test period so as to maintain optimum soil moisture for plant growth and were fertilized with Osmocote® (14-14-14 slow release; Scotts-Sierra Horticultural Products Co., Marysville, Ohio) at the rate of 100 gm/cu. ft. to sustain plant growth for the duration of greenhouse trials.
(§2) A 14 hour minimum photoperiod was provided with supplemental light at about 600 μE (micro-Einsteins) as needed. Trials were established in a randomized block design randomized by rate with 4 to 6 replications of each treatment.
(§3) All herbicide applications were made with the track sprayer using a Teejet® 9501E flat fan nozzle (Spraying Systems Co, Wheaton, Ill.) with air pressure set at a minimum of 24 psi (pounds per square inch), or 165 kpa (kilopascals)). The spray nozzle was kept at a height of about 16 inches above the top of plant material for spraying. The spray volume was 10 gallons per acre or 93 liters per hectare. Applications were made when plants had reached V-3 stage.
Leaf samples were harvested after 0, 3, 8, 24, 48, 72 hrs after treatment (HAT) and frozen for further analysis. […] RNA was extracted and analyzed by northern blot analysis using PR-2, i.e., β-1,3-glucanase as a probe.

soybean plants = format: in vivo
Description: as §1, §2, §3
For this example, the plants were grown as described in the above example. Transgenic and non transgenic soybean plants carrying the DMO gene in their genome were either treated with Paraquat (Gramoxone®; Syngenta) to create oxidative stress or with dicamba followed by Paraquat at V3 stage. The dicamba rate was 1 lb/acre or 1120 g ae/ha. Paraquat was applied at 30, 70, or 200 g ae/ha. Plants were then evaluated for paraquat injury by visually assessing injury at a particular day after treatment (DAT) for injury on a scale of 0 to 100 percent relative to untreated control plants, with zero representing “no” injury and 100% representing “complete” injury or death. Data were collected and analyzed using suitable statistical methods.
In another experiment, the effect of externally applied DCSA was tested for its benefit in protecting soybean plants from oxidative stress injury caused by Paraquat. Different amounts of DCSA were applied 24 hrs before applying Paraquat to test any correlation between the amount of DCSA applied and the extent of protection obtained from oxidative stress measured in terms of reduction in % injury as described above. Different levels of dicamba were also applied separately to test the same hypothesis.

soybean = conditions: DMO transgenic soybean, dicamba 1.5 lb ae/acre Pre and/or Post (V3-4), in 4/5 events and 13/15 treatments, FIG. 6
Method: The yield enhancing-benefit of DSCA was tested by growing non-transgenic and transgenic plants and applying dicamba to transgenic plants and harvesting the seeds. Non-transgenic and transgenic soybean seeds were planted near the beginning of the growing season in several locations at the time of best possible growth conditions such as soil moisture, temperature, and seeding depth. […] In all, 240 plots were planted at 6 locations (40 per location).
Four non-transgenic border rows were planted all around the trial using a known commercial line such as A3525. Optimum production and management practices known in the art were followed. Maximum pest control and disease control was practiced as needed to prevent confounding effects of dicamba applications. The field was irrigated as needed according to standard practices.

Verticillium dahliae = assay: Protection of cotton against Verticillium wilt, seedling dipping inoculation; format: in vivo; conditions: for Plant survival rating (out of 10) / Severity rating (1-9): cotton ST6611, DCSA 1 lb/A, glyphosate 0.75 lb/A 24 hours before inoculation; for Severity rating (1-9): 1 healthy, 9 dead
Description: DCSA was unexpectedly found to provide protection to cotton plants against Verticillium dahliae, causal agent of cotton wilt disease (Table 6). Cotton plants of the variety ST6611, BOLLGARD 2, ROUNDUP READY FLEX, were inoculated with a moderate isolate (DPL) or a virulent isolate (King) of Verticillium by a seedling dipping method. Seedlings at the first true leaf stage were taken out from the pots, one inch of roots were cut off, seedlings were dipped in a spore slurry for one minute, and then transplanted back in the pots. These strains were isolated and provided by Dr. Terry Wheeler (Texas A&M University, TX USA). DCSA was applied at the rate of 1 lb/A and glyphosate (ROUNDUP WEATHERMAX, Monsanto) at the rate of 0.75 lb/A 24 hours before inoculation. Protection against Verticillium was measured on a disease severity scale of 1-9: 1 being healthy and 9 being dead because of disease, and also was measured as the number of plants that survived out of 10 inoculated plants.

Pythium ultimum = Pythium ultimum inoculation of sprayed cotton seedlings; format: in vivo; conditions: cotton plants contacted with 3,6-DCSA; untreated plants are killed
Method: Ten-day old Roundup Ready® Flex Cotton (Event MON 88913; U.S. Publ. 20060059590) seedlings were sprayed with a mixture of Roundup Weather Max® (Monsanto, St. Louis, Mo.) and 3,6-DCSA (BASF). The control plants were sprayed with water only. The cotton seedlings from both treatments were inoculated with Pythium ultimum by dipping seedling into inoculum slurry, 24 hours after the spray application. The positive control plants were neither sprayed nor inoculated with P. P. ultimum. […] Cotton plants treated with Roundup® and DCSA were as healthy as were the plants not inoculated with P. ultimum.

[2] = tested on: Xanthomonas campestris pv. malvacearum; assay: Bacterial blight tooth pick inoculation of sprayed cotton plants; format: in vivo; conditions: two-week old cotton, DCSA sprayed about 24 hours before inoculation, FIG. 4
Method: In this example, two-week old cotton plants were sprayed with DCSA while control plants received spray application of water only. The plants were inoculated with bacterial blight pathogen (Xanthomonas campestris pv. malvacearum) about 24 hours after the DCSA spray application using a tooth pick inoculation method. As shown in the FIG. 4, the cotton plants inoculated with the bacterial pathogen but not sprayed with DCSA developed necrotic spots, typical symptoms of bacterial blight. […] The results of this experiment indicate that DCSA application reduced bacterial infection on cotton plants when inoculated with bacterial pathogen 24 hours after the DCSA spray.

cotton plants = assay: Paraquat (Gramoxone) oxidative stress injury in cotton, visual % injury; format: in vivo; conditions: for Percentage injury: 2 DAT, DCSA where applied 1 lb/acre 24 hours before
Method: Four different cotton cultivars as indicated in Table 3 were grown in 4-inch pots for two weeks. These cotton plants were either sprayed with DCSA (BASF) at the 1 lb/A rate, or unsprayed (no DCSA application, as control). Experimental plants (treated with DCSA and untreated) were sprayed with Paraquat (Gramoxone®; Syngenta) at 30 gm/ha, 70 gm/ha, and 100 gm/ha rates, 24 hours after the application of DCSA, to simulate oxidative stress. […] The same experiment was repeated at two different growth stages of cotton (2 nodes stage and 5 nodes stage).

[3] = tested on: Root Knot Nematode (RKN; Meloidogyne incognita); assay: Control of cotton root knot nematode in cotton plants (ST474); format: in vivo; conditions: RKN + DCSA
Method: DCSA was unexpectedly found to control gall formation, improve plant height and reduce number of eggs produced by the nematode in cotton plants (ST474) (Table 5). Ten to fourteen days old cotton plants were treated with DCSA at the rate of […], 24 hrs before inoculating them with RKN eggs. […] Plant height, gall rating, and egg counts were measured 45 days after inoculation. The gall rating scale was 0-5 with 0=no visible galling and 5=heavy galling.

[4] = Verticillium isolate DPL (moderate)
[5] = Verticillium isolate King (virulent)
[6] = individual cotton plants 1-8, DCSA 24 hrs before inoculation, 45 days after inoculation

COc1c(Cl)ccc(Cl)c1C(=O)O [Dicamba, 3,6-dichloro-2-methoxybenzoic acid]
induction of PR2 at various rates [1]: induction of PR2
induction of PR2 at various time points ([1]; DMO soybean, dicamba (Clarity) 1 lb/acre at Post-V3, leaf samples 0-72 HAT, FIG. 1): induction of PR2
% injury at 5 DAT (soybean plants; in vivo): 65.00% and 54.17% and 45.83% and 51.67% and 40.83%
Paraquat injury (soybean plants; in vivo): significantly reduced Paraquat injury
protection against oxidative stress caused by subsequently applied paraquat (soybean plants; in vivo): provided protection against oxidative stress
yield relative to unsprayed controls (soybean): an increase or equivalent yield to unsprayed controls

O=C(O)CNCP(=O)(O)O [Glyphosate, N-phosphonomethylglycine, reference compound]
Plant survival rating (out of 10) (Verticillium dahliae; [4]): 10
Severity rating (1-9) (Verticillium dahliae; [4]): 2
Plant survival rating (out of 10) (Verticillium dahliae; [5]): 10
Severity rating (1-9) (Verticillium dahliae; [5]): 3.5

O=C(O)c1c(Cl)ccc(Cl)c1O [DCSA, 3,6-dichloro salicylic acid]
induction of PR2 at various rates [1]: induction of PR2
survival of cotton plants after inoculation with Pythium ultimum (Pythium ultimum): survive inoculation
bacterial blight symptoms [2]: only localized lesions (HR response) and no increase in bacterial blight symptoms
% injury at 5 DAT (soybean plants; event 469-13-19, 280 g/ha of Dicamba or DCSA followed by 100 g ae/ha of paraquat): 50.83%
% injury at 5 DAT (soybean plants; event 469-13-19, 561 g/ha of Dicamba or DCSA followed by 100 g ae/ha of paraquat): 48.33%
% injury at 5 DAT (soybean plants; event 469-13-19, 1120 g/ha of Dicamba or DCSA followed by 100 g ae/ha of paraquat): 43.33%
% injury at 5 DAT (soybean plants; in vivo): 66.67% and 53.33% and 49.17%
protection against oxidative stress caused by subsequently applied paraquat (soybean plants; transgenic soybean, applied 24 hrs before Paraquat, reduction in injury increased with rate): provided protection against oxidative stress
Gramoxone injury (cotton plants; four varieties of RR cotton pretreated with DCSA (24 hours), two nodes stage and 5 nodes stage): reduced significantly
RKN Gall Rating (0-5) ([3]; individual cotton plants 1-8, 45 days after inoculation, 0=no visible galling, 5=heavy galling): 0 (4×) and 2 and 1 (3×)
Egg Count/pot [3, 6]: 5,200 and 1,800 and 2,200
Plant Height [3, 6]: 25.4 cm (3×) and 22.2 cm and 17.8 cm and 14.0 cm and 15.9 cm and 12.7 cm
Plant Height, Mean ([3]; mean of 8 cotton plants, 45 days after inoculation): 19.8 cm
RKN Gall Rating (0-5), Mean ([3]; mean of 8 cotton plants, 45 days after inoculation, 0=no visible galling, 5=heavy galling): 0.6
Plant survival rating (out of 10) (Verticillium dahliae; [4]): 10
Severity rating (1-9) (Verticillium dahliae; [4]): 1
Plant survival rating (out of 10) (Verticillium dahliae; [5]): 10
Severity rating (1-9) (Verticillium dahliae; [5]): 2
protection against Verticillium (Verticillium dahliae; cotton, isolates DPL and King, DCSA 1 lb/A 24 hours before inoculation): provided protection against both moderate and strong isolates of Verticillium dahliae

C[n+]1ccc(-c2cc[n+](C)cc2)cc1 [Paraquat]
% injury (soybean plants; N3001 (non-transgenic) soybean, paraquat 200 g ae/ha, V-3 stage, 4 DAT): 75%
% injury at 5 DAT Paraquat alone control (soybean plants; transgenic event 462-1-21, paraquat 100 g ae/ha alone): 75.83%
% injury at 5 DAT Paraquat alone control (soybean plants; transgenic event 469-13-19, paraquat 100 g ae/ha alone): 77.50%
injury rate (soybean plants; transgenic soybean plants contacted with Paraquat alone): about 75%
Percentage injury (cotton plants; cotton ST3273B2RF, Gramoxone 30 g a.i./ha): 35%
Percentage injury (cotton plants; cotton ST3273B2RF, Gramoxone 70 g a.i./ha): 50%
Percentage injury (cotton plants; cotton ST3273B2RF, Gramoxone 100 g a.i./ha): 50%
Percentage injury (cotton plants; cotton ST4575BR, Gramoxone 100 g a.i./ha): 65%
Percentage injury (cotton plants; cotton ST4646B2RF, Gramoxone 100 g a.i./ha): 70%
Percentage injury (cotton plants; cotton ST6622RF, Gramoxone 70 g a.i./ha): 50%
Percentage injury (cotton plants; cotton ST6622RF, Gramoxone 100 g a.i./ha): 70%

From patent US20140315717A1 (priority 2006, published 2014)
